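Five concentrations, 48 hours, 96-well plates. TGI is the concentration that stops growth completely.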
What was measured:
Experiment in all cases: NCI anticancer screen, dose series, 48 h
K-562 leukemia = test system: K-562 leukemia
A549 NSCLC = test system: A549 NSCLC
T-47D breast = test system: T-47D breast
IGROV1 ovarian = test system: IGROV1 ovarian
NCI-H460 lung = test system: NCI-H460 lung
CAKI-1 renal = test system: CAKI-1 renal
SF-268 CNS = test system: SF-268 CNS
NCI-H522 lung = test system: NCI-H522 lung
KM12 colon = test system: KM12 colon
MDA-N = test system: MDA-N
MOLT-4 leukemia = test system: MOLT-4 leukemia
SW-620 colon = test system: SW-620 colon
BT-549 breast = test system: BT-549 breast

Row | Structure (SMILES) | TGI (K-562 leukemia) | TGI (A549 NSCLC) | TGI (T-47D breast) | TGI (IGROV1 ovarian) | TGI (NCI-H460 lung) | TGI (CAKI-1 renal) | TGI (SF-268 CNS) | TGI (NCI-H522 lung) | TGI (KM12 colon) | TGI (MDA-N) | TGI (MOLT-4 leukemia) | TGI (SW-620 colon) | TGI (BT-549 breast)
1 | O=[N+]([O-])C(/C=C(\Cl)[N+](=O)[O-])=C(N1CCCCC1)N1CCCCC1 | 66.9 µM | 54 µM | > 100 µM | 61.1 µM | > 100 µM | > 100 µM | > 100 µM | > 100 µM | > 100 µM | 41 µM | > 100 µM |  | 
2 | COc1ccccc1NC(=O)CC(=O)N1N=C(c2ccccc2)C(N=Nc2ccc(Cl)cc2)C1=O (stereo not drawn) | > 100 µM | > 100 µM |  | > 100 µM | > 100 µM | > 100 µM | > 100 µM | > 100 µM | > 100 µM |  | > 100 µM | > 100 µM | 
3 | CC(=O)NNc1nc(C)c(C(=O)/C=C/c2ccc(Cl)c(Cl)c2)s1 | > 100 µM | > 100 µM |  | > 100 µM | > 100 µM | > 100 µM | > 100 µM | > 100 µM | > 100 µM |  | > 100 µM | > 100 µM | 
4 | O=c1[nH]c(=O)n(CCOc2ccc(Cl)cc2)cc1Nc1ccccc1 | > 100 µM | > 100 µM |  | > 100 µM | > 100 µM | > 100 µM | > 100 µM |  | > 100 µM | > 100 µM | > 100 µM | > 100 µM | 
5 | C/C(=N/O)c1sc(-c2nc(C)c(/C(C)=N\O)s2)nc1C | > 100 µM | > 100 µM |  | > 100 µM |  | > 100 µM | > 100 µM |  |  |  | > 100 µM | > 100 µM | 
6 | NC(N)=NS(=O)(=O)c1ccc(NC(=O)c2cccc3c(N)c4ccccc4nc23)cc1 | > 100 µM | > 100 µM |  | > 100 µM | > 100 µM | > 100 µM | > 100 µM | > 100 µM | > 100 µM |  | > 100 µM | > 100 µM | 
7 | CCCCCCCCCCCCC(Br)C(C)=O (stereo not drawn) |  | > 100 µM |  | > 100 µM | > 100 µM |  | > 100 µM | > 100 µM | > 100 µM |  |  | > 100 µM | 
8 | O=c1[nH]c2c(c(=O)[nH]1)C(c1ccc([N+](=O)[O-])cc1)c1c([nH]c(=O)[nH]c1=O)O2 |  | > 100 µM |  | > 100 µM | > 100 µM | > 100 µM | > 100 µM | 82.9 µM | > 100 µM | > 100 µM |  | > 100 µM | > 100 µM
9 | O=C(Cc1nc2ccc([N+](=O)[O-])cc2[nH]c1=O)C(=O)Nc1ccccc1[N+](=O)[O-] | > 100 µM | > 100 µM |  | > 100 µM | > 100 µM | > 100 µM | > 100 µM | > 100 µM | > 100 µM |  | > 100 µM | > 100 µM | 
10 | CC(C)C(Sc1nc(-c2ccccc2)c(-c2ccccc2)[nH]1)c1n[nH]c(=S)n1-c1ccccc1 (stereo not drawn) |  | > 100 µM |  | 69.2 µM | > 100 µM |  | > 100 µM | 43.6 µM | 30.5 µM |  | 47.5 µM | > 100 µM | 
11 | COC(=O)C(=O)C(/C(=N/N)C(=O)Nc1ccccc1C(N)=O)c1nc2ccc([N+](=O)[O-])cc2[nH]c1=O (stereo not drawn) | > 100 µM | > 100 µM |  | > 100 µM | > 100 µM | > 100 µM | > 100 µM | > 100 µM | > 100 µM |  | > 100 µM | > 100 µM | 
12 | O=C(O)CCN(CCCN(CCC(=O)O)CCC(=O)O)CCC(=O)O | > 100 µM | > 100 µM |  | > 100 µM | > 100 µM | > 100 µM | > 100 µM | > 100 µM | > 100 µM |  | > 100 µM | > 100 µM | 
13 | Nc1cc(Cl)ccc1SSc1ccc(Cl)cc1N | > 100 µM | > 100 µM | 45.4 µM | 25.5 µM | 31.6 µM | 35.7 µM | 83.5 µM | 23.8 µM | 24.6 µM |  | > 100 µM | 15 µM | 35.1 µM
14 | O=C1[C@@H](O)[C@@H]2CCCC[C@@]23CCCN13 | > 100 µM | > 100 µM | > 100 µM | > 100 µM | > 100 µM | > 100 µM | > 100 µM | > 100 µM | > 100 µM | > 100 µM | > 100 µM |  | 
15 | CC1=C(C(=O)CC(=O)C(=O)Nc2ccc(C)c(C)c2)Sc2ccccc2N1 |  | > 100 µM |  | > 100 µM | > 100 µM | > 100 µM | > 100 µM | > 100 µM | > 100 µM |  |  | > 100 µM | 
16 | CN1CC2=C(NC(=S)NC2c2ccccc2Cl)/C(=C/c2ccccc2Cl)C1 (stereo not drawn) | > 100 µM | > 100 µM | > 100 µM | > 100 µM | > 100 µM | > 100 µM | > 100 µM | > 100 µM | > 100 µM | > 100 µM | 75.5 µM | > 100 µM | 

Row | Structure (SMILES) | TGI (K-562 leukemia) | TGI (A549 NSCLC) | TGI (T-47D breast) | TGI (IGROV1 ovarian) | TGI (NCI-H460 lung) | TGI (CAKI-1 renal) | TGI (SF-268 CNS) | TGI (NCI-H522 lung) | TGI (KM12 colon) | TGI (MDA-N) | TGI (MOLT-4 leukemia) | TGI (SW-620 colon) | TGI (BT-549 breast)
17 | NC(CCCCNCc1ccccc1)C(=O)O (stereo not drawn) | > 100 µM | > 100 µM |  | > 100 µM | > 100 µM | > 100 µM | > 100 µM | > 100 µM | > 100 µM |  | > 100 µM | > 100 µM | 
18 | O=C(O)c1ccc([C@@H]2C(=O)N(O)[C@@H]3C=CC[C@@H]32)cc1 | > 100 µM | > 100 µM |  | > 100 µM |  | > 100 µM | > 100 µM | > 100 µM | > 100 µM |  | > 100 µM | > 100 µM | 
19 | COc1ccc(/C=C2\CCC(CCN3CCOCC3)C2=O)cc1 (stereo not drawn) | > 100 µM | > 100 µM |  | > 100 µM | > 100 µM | > 100 µM | > 100 µM |  | > 100 µM |  | > 100 µM | > 100 µM | 
20 | CCN(CC)Cc1cc(Nc2ccnc3ccc4nn(C)nc4c23)ccc1O | > 100 µM | 80 µM |  | 99 µM | 22.5 µM | > 100 µM | 36.4 µM | 21.6 µM | 25.9 µM |  | > 100 µM | 28.2 µM | 
21 | CC1=CC(=O)N(n2c(-c3ccccc3)n[nH]c2=O)C1=O | > 100 µM | > 100 µM | > 100 µM | > 100 µM | > 100 µM | > 100 µM | > 100 µM | > 100 µM | > 100 µM |  | > 100 µM | > 100 µM | > 100 µM
22 | O=C(O)C12CCC(CC1=O)C2 (stereo not drawn) | > 100 µM | > 100 µM | > 100 µM | > 100 µM | > 100 µM | > 100 µM | > 100 µM | > 100 µM | > 100 µM |  | > 100 µM | > 100 µM | > 100 µM
23 | Cc1cc(S(=O)(=O)NC(=NCCc2ccccc2)NN)c(S)cc1Cl | > 100 µM | > 100 µM | 63 µM | > 100 µM |  | > 100 µM | 79.7 µM | > 100 µM | 66.7 µM |  | 63.9 µM | 82.5 µM | 66.2 µM
24 | COc1cc(CNc2cnc3ccc(N)cc3n2)cc(OC)c1OC | > 100 µM | > 100 µM |  | > 100 µM | > 100 µM | > 100 µM | > 100 µM | > 100 µM | > 100 µM |  | > 100 µM | > 100 µM | 
25 | C=CC1(c2ccc3ccccc3c2)OCC(CC)O1 (stereo not drawn) | 85.1 µM | > 100 µM | > 100 µM | > 100 µM | > 100 µM |  | > 100 µM | > 100 µM | > 100 µM | > 100 µM | 87.9 µM | > 100 µM | 
26 | COc1ccc(/C=C/C(=O)c2sc(-c3cccnc3)nc2C)cc1 | > 100 µM | > 100 µM |  | > 100 µM | > 100 µM | > 100 µM | > 100 µM | > 100 µM | 44.5 µM |  | 99.5 µM | > 100 µM | 
27 | COC(=O)C(c1ccc(OC)cc1)N1C(=O)[C@@H](NC(=O)c2ccccc2)[C@H]1[C@@H](C)O (stereo partly drawn) | > 100 µM | > 100 µM |  | > 100 µM | > 100 µM |  | > 100 µM | > 100 µM | > 100 µM |  | > 100 µM | > 100 µM | 
28 | Cc1nc2c3c(ccc2[nH]c1=O)C(=O)c1ccccc1C3=O | > 100 µM | > 100 µM |  | > 100 µM | > 100 µM | > 100 µM | > 100 µM | > 100 µM | > 100 µM |  |  | > 100 µM | 
29 | O=C1CC2CC(CC3(CO3)C2)C1F (stereo not drawn) | > 100 µM | > 100 µM | > 100 µM | > 100 µM | > 100 µM | > 100 µM | > 100 µM | > 100 µM | > 100 µM | > 100 µM | > 100 µM |  | 
30 | C#CCOCn1cc(C)c(=O)[nH]c1=O | > 100 µM | > 100 µM | > 100 µM | > 100 µM | > 100 µM | > 100 µM | > 100 µM |  | > 100 µM | > 100 µM | > 100 µM | > 100 µM | 
31 | CC(C)OP(=O)(OC(C)C)C(=NCCN=C(NNc1ccccc1[N+](=O)[O-])P(=O)(OC(C)C)OC(C)C)NNc1ccccc1[N+](=O)[O-] | > 100 µM | > 100 µM |  | 82.7 µM |  | > 100 µM | > 100 µM | > 100 µM | > 100 µM |  | > 100 µM | > 100 µM | 
32 | Cc1ccc(-c2nnc3s/c(=C\c4ccc(N(C)C)cc4)c(=O)n23)cc1 |  | > 100 µM |  | > 100 µM | > 100 µM | > 100 µM | > 100 µM | > 100 µM | > 100 µM |  | > 100 µM | > 100 µM | 

Source: PubChem BioAssay (NCI)
